Consider two compounds from patent US20120028897A1, “METHODS AND COMPOSITIONS FOR THE TREATMENT OF FLUID RETENTION DISORDERS” (priority 2008, published 2012).

A short description of data set [1]: Urinary excretion and isomer identity after iv infusion (T84 bioassay and LC-MS of urine). The data set is classed as in vivo, rat. Conditions: for stability of identity and properties in vivo: infused rats; for GC-C stimulating activity recovered in urine: T84 bioassay. As for the experimental part: FIG. 3A is a graph showing urinary excretion of “UgnA like” activity as a function of time in animals treated with the either huUgnA (filled symbols) or huUgnB (open symbols). huUgn was infused into an anesthetized rat during the period indicated by the horizontal bar. […] A sample of the urine acquired during each clearance period was evaluated for activity in the T84 cell bioassay. The resulting cyclic GMP responses were then converted to apparent recoveries of “UgnA-like” peptide by interpolation on a huUgnA standard curve (constructed as in FIG. 1A). Appropriate dilutions were chosen to ensure that the activity in each sample would not saturate this assay.
(§1) After post-surgical equilibration (−60 min) and three 20 min control clearance periods, huUgnA or B was infused into the jugular vein at 10 μl/min over a 60 min period, followed by a return to isotonic saline for the remainder of the experiment. The infused doses of huUgnA were 12, 25, 50, 100, or 200 nmol/kg BW in a total of 38 rats; huUgnB doses were 9, 18, 35, 70, and 140 nmol/kg BW in 35 rats. A UgnA mimetic, E. coli STh (ST-core), was infused into a third group of 32 rats at doses of 17, 32, 66, 133, and 266 nmol/kg. Renal excretory responses to these infusions were slow to develop and long lasting, so clearance periods were continued for 2-3 hr after the termination of the peptide infusion. This protracted time course limited protocols to one dose of one peptide in each rat. A control group of 10 rats received isotonic saline at 10 μl/min in place of the peptide infusion, but was otherwise treated in the same way as the experimental groups.
HPLC analysis and mass spectroscopy of Ugn isomers. The integrity and purity of huUgnA and B isomer preparations were confirmed by liquid chromatography/mass spectroscopy (LC-MS) analysis. The two Ugn isomers have different retention times on a reverse phase HPLC column (FIG. 1, dashed trace; huUgnA elutes ˜0.35 minutes before huUgnB). Separations were performed on a Hypersil Gold AQ 2.1×50 mm column from Thermo Fisher Scientific Inc (Waltham, Mass.) equilibrated in 98% buffer A (0.1% formic acid), 2% buffer B (85:10:5 Acetonitrile/Isopropyl Alcohol/5 mM NH4OAc pH 5.8) with a flow rate of 0.4 ml/min on an Acquity HPLC system. After a 2.5 minute wash with the same buffers, peptides were eluted with a linear gradient of 2% buffer B to 80% buffer B over 25 minutes and held for one minute before an increase to 90% B over 2 minutes to wash the column, followed by a return to 2% buffer B over 3 minutes.
Peptide masses were determined using a Micromass Q-T of II instrument equipped with an electrospray ionization (ESI) source operating in positive ion mode. The instrument was programmed to scan in the mass range of m/z 100 to 1800. Molecular weight predictions and data analysis were carried out with MassLynx version 4.0 software. […] were injected directly without any sample preparation using an Acquity HPLC system connected in line with the Q-T of II.
Bioassay of huUgnA-like activity. The concentration of huUgnA-like bioactivity in infused peptide solutions and in urine collected during experiments was measured using a T84 cell-based bioassay, as described previously. T84 cells are a colon carcinoma cell line that increases cyclic GMP production in response to GC-C receptor agonists such as Ugn, Gn and ST core peptide. T84 cells were grown to near confluence in 12 well culture clusters, and then incubated with unknowns or standard concentrations of huUgnA. Standards or urine samples were diluted into bioassay medium (1 mM 3-isobutyl-1-methylxanthine, 0.03 mM phenol red, 137 mM NaCl, 5.4 mM KCl, 0.25 mM Na2HPO4, 0.44 mM KH2PO4, 1.3 mM CaCl2, 1.0 mM MgSO4, 4.2 mM NaHCO3, 10 mM HEPES buffered at pH 7.0) and the pH was adjusted to 7.0, if required, using the phenol red indicator dye as a guide. This pH adjustment was necessary, as it is well-established that the response of T84 cells to UGn is highly pH dependent. […]

For the next data set, the system named is anesthetized rats. Put plainly: Mean arterial blood pressure during and after iv peptide infusion. Format: in vivo, rat. As for the experimental part:
Rats were not fasted prior to clearance experiments and ranged in weight from 250-340 g at the time of study. Anesthesia was induced with an intraperitoneal injection of pentobarbital sodium (55 mg/kg BW) and maintained at a surgical plane by intermittent intravenous supplementation. Core temperature was maintained at 37° C. by a servo-controlled, heated operating table. Animals breathed spontaneously through a PE240 cannula inserted into the trachea. A jugular vein was catheterized with PE50 cannula tubing for intravenous infusion of isotonic saline containing FITC-labeled inulin (0.4% W/V, Sigma, St Louis Mo.) and two PE10 cannulae, one for supplemental anesthetic and the other for peptide infusions (described below in the experimental protocol section). The ureters were exposed through a midline ventral incision and cannulated with PE10 tubing about one cm from each kidney. Urine was collected over 20 min periods and the volume estimated by weight. A femoral artery was cannulated with PE50 tubing for continuous measurement of arterial blood pressure and intermittent blood samples (50 μl), taken at the mid point of each urine collection.
Arterial blood pressure was measured with a pressure transducer connected to a cardiovascular analyzer (Model 50110, Stoelting Instruments Wood Dale, Ill.). Left renal blood flow was measured in some rats with a flow probe positioned on the left renal artery and connected to a blood flow monitor (model 1 PRB probe and model T420 monitor, Transonic Systems Inc. Ithaca N.Y.). Arterial pressure, heart rate, and renal blood flow were digitized with an A/D converter (Keithley instruments, Cleveland, Ohio Model KUSB 3100) for display and storage on a Windows-based personal computer using open layers data acquisition software (Dtx_Ez, Data Translation Inc, Marlboro, Mass.). Sodium and potassium concentrations in plasma and urine were measured by flame photometry (Model 943, Instrumentation Laboratory Co., Lexington Mass.). Glomerular filtration rate (GFR) was measured as the renal clearance rate of FITC-labeled inulin
as §1
Group comparisons were made with one way analysis of variance (ANOVA) using peptide doses as column variables. Columns were further divided into pre-infusion, infusion, and post infusion subgroups to facilitate post hoc testing with Bonferroni's method for selected multiple comparisons. Row variables were individual measurements from each clearance period for each rat. Responses were tested for statistical significance by comparing control values during the pre-infusion, infusion and post infusion collection periods with corresponding values obtained from peptide-infused rats. Each experimental group included 5 different doses of huUgnA, huUgnB, or ST-core. Thus, fifteen comparisons were required for each measured variable in each group.

Data set [2] has as its target cultured GC-C-expressing cells (Homo sapiens, UniProt P25092). Conditions: cited from earlier work.

pEC50: −log10 of the molar value.

Sequence of cultured GC-C-expressing cells (P25092 24-1073): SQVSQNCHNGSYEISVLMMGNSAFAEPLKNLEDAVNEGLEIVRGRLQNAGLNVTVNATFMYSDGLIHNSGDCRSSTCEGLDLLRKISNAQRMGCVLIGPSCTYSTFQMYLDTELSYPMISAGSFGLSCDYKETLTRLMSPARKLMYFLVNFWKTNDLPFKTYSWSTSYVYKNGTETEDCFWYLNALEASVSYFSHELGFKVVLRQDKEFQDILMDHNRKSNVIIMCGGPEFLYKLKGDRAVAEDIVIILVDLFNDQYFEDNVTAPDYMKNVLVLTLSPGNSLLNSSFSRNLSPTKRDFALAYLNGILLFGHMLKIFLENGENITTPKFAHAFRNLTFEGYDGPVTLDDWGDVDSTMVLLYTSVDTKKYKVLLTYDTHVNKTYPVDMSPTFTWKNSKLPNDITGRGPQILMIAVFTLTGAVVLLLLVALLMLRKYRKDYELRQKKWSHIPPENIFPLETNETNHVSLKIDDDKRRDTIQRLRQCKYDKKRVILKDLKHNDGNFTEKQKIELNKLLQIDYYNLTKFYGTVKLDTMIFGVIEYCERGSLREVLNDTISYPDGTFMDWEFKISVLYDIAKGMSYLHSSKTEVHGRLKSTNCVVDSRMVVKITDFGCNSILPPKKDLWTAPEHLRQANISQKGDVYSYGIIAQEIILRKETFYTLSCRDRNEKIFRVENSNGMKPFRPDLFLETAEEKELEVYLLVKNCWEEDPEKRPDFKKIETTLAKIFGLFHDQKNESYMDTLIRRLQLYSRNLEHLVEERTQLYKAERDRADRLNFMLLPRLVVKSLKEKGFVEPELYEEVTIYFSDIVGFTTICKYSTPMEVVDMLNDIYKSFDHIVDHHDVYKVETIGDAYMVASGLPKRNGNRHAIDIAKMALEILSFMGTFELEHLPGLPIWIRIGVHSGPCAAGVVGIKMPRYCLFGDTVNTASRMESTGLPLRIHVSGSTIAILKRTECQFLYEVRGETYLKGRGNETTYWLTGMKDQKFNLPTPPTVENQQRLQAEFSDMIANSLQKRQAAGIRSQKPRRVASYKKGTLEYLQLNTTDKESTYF

For the compound `CC(C)C[C@H](NC(=O)[C@@H]1CSSC[C@@H]2NC(=O)[C@H](CC(C)C)NC(=O)[C@H](CCC(=O)O)NC(=O)[C@@H](NC(=O)[C@H](CC(=O)O)NC(=O)[C@H](CC(=O)O)NC(=O)[C@@H](N)CC(N)=O)CSSC[C@H](NC(=O)[C@H](C)NC(=O)[C@H](C(C)C)NC(=O)[C@H](CC(N)=O)NC(=O)[C@H](C(C)C)NC2=O)C(=O)N[C@@H]([C@@H](C)O)C(=O)NCC(=O)N1)C(=O)O` (single isomer, unassigned) [huUgnA, Asn Asp Asp Cys Glu Leu Cys Val Asn Val Ala Cys Thr Gly Cys Leu, reference compound], the “stability of identity and properties in vivo” value in data set [1] is listed as “sufficiently stable for use in acute animal studies”. Further, the “isomerization in vivo, LC-MS of urine at peak peptide excretion” value in data set [1] (iv infusion, anesthetized rat) was “essentially no isomerization had occurred”. The “return of urinary GC-C stimulating activity to baseline after infusion was terminated” value in data set [1] (iv infusion, anesthetized rat) is listed as “within an hour”. Besides, in data set [1] (iv infusion, anesthetized rat), the “time to appearance of GC-C stimulating activity in urine from start of infusion” value is listed as no more than 20 min. Also, in data set [1] (iv infusion, anesthetized rat), the “GC-C stimulating activity recovered in urine” value is “a significant amount”. Also, the “BP (mean arterial blood pressure)” value in the data set with anesthetized rats (huUgnA 12 nmol, Infusion) amounted to 110 ± 4 mmHg; with anesthetized rats (huUgnA 12 nmol, Post-infuse), 104 ± 3 mmHg; in the data set on anesthetized rats (huUgnA 12 nmol, Pre-infuse), 121 ± 4 mmHg; in the data set on anesthetized rats (huUgnA 25 nmol, Infusion) it was 111 ± 4 mmHg; in the data set with anesthetized rats (huUgnA 25 nmol, Post-infuse) it was 105 ± 4 mmHg; in the data set on anesthetized rats (huUgnA 25 nmol, Pre-infuse), 119 ± 3 mmHg. Further, the “BP (mean arterial blood pressure)” value in the data set with anesthetized rats (huUgnA 50 nmol, Infusion) was 106 ± 3 mmHg; with anesthetized rats (huUgnA 50 nmol, Post-infuse) it was 101 ± 3 mmHg; in the data set on anesthetized rats (huUgnA 50 nmol, Pre-infuse), 117 ± 3 mmHg; in the data set with anesthetized rats (huUgnA 100 nmol, Infusion) it was 115 ± 3 mmHg; with anesthetized rats (huUgnA 100 nmol, Post-infuse), 109 ± 4 mmHg; in the data set on anesthetized rats (huUgnA 100 nmol, Pre-infuse), 121 ± 4 mmHg. Also, the “BP (mean arterial blood pressure)” value in the data set on anesthetized rats (huUgnA 200 nmol, Infusion) came to 113 ± 5 mmHg; in the data set on anesthetized rats (huUgnA 200 nmol, Post-infuse), 112 ± 4 mmHg; with anesthetized rats (huUgnA 200 nmol, Pre-infuse), 121 ± 7 mmHg. The pEC50 in data set [2] (read-out: EC50, cGMP responses) was roughly 7.00.

`CC(C)C[C@H](NC(=O)[C@@H]1CSSC[C@@H]2NC(=O)[C@H](CC(C)C)NC(=O)[C@H](CCC(=O)O)NC(=O)[C@@H](NC(=O)[C@H](CC(=O)O)NC(=O)[C@H](CC(=O)O)NC(=O)[C@@H](N)CC(N)=O)CSSC[C@H](NC(=O)[C@H](C)NC(=O)[C@H](C(C)C)NC(=O)[C@H](CC(N)=O)NC(=O)[C@H](C(C)C)NC2=O)C(=O)N[C@@H]([C@@H](C)O)C(=O)NCC(=O)N1)C(=O)O` (single isomer, unassigned) [huUgnB, Asn Asp Asp Cys Glu Leu Cys Val Asn Val Ala Cys Thr Gly Cys Leu]: the “stability of identity and properties in vivo” value in data set [1] was “sufficiently stable for use in acute animal studies”. In data set [1] (iv infusion, anesthetized rat), the “isomerization in vivo, LC-MS of urine at peak peptide excretion” value is recorded as “a clearly discernable huUgnB signal along with a barely detectible huUgnA signal”. Besides, in data set [1] (iv infusion, anesthetized rat), the “GC-C stimulating activity recovered in urine” value is “very little”. The “BP (mean arterial blood pressure)” value in the data set with anesthetized rats (huUgnB 9 nmol, Infusion) was found to be 108 ± 6 mmHg; in the data set with anesthetized rats (huUgnB 9 nmol, Post-infuse), 107 ± 5 mmHg; with anesthetized rats (huUgnB 9 nmol, Pre-infuse), 115 ± 5 mmHg; with anesthetized rats (huUgnB 18 nmol, Infusion) it was 117 ± 3 mmHg; with anesthetized rats (huUgnB 18 nmol, Post-infuse) it was 113 ± 3 mmHg; in the data set on anesthetized rats (huUgnB 18 nmol, Pre-infuse), 124 ± 2 mmHg. Moreover, the “BP (mean arterial blood pressure)” value with anesthetized rats (huUgnB 35 nmol, Infusion) is 108 ± 4 mmHg; in the data set with anesthetized rats (huUgnB 35 nmol, Post-infuse), 107 ± 3 mmHg; in the data set on anesthetized rats (huUgnB 35 nmol, Pre-infuse), 118 ± 3 mmHg; in the data set with anesthetized rats (huUgnB 70 nmol, Infusion) it was 107 ± 5 mmHg; with anesthetized rats (huUgnB 70 nmol, Post-infuse), 107 ± 4 mmHg; in the data set on anesthetized rats (huUgnB 70 nmol, Pre-infuse), 119 ± 3 mmHg. In addition, the “BP (mean arterial blood pressure)” value with anesthetized rats (huUgnB 140 nmol, Infusion) stood at 119 ± 5 mmHg; in the data set with anesthetized rats (huUgnB 140 nmol, Post-infuse) it was 117 ± 5 mmHg; in the data set on anesthetized rats (huUgnB 140 nmol, Pre-infuse) it was 123 ± 5 mmHg. The “potency, fold less potent than the A isomer” value in data set [2] is given as “more than 100 fold”.
